Results published in patent US12146004B2, “Polymyxin compounds and uses thereof” (priority 2014, dated 2024).
Converted amounts (≈) assume the structure as drawn. Where two headings read alike, the source gives them in different places. Numbered stars: 1 amine (or outer) side, 2 acyl side, 3 side chain; on linkers, the order of the positions; unused ones are H or OH. Bridge positions count the residues as written; N and C are the ends. Square brackets hold non-standard residues; d marks the D form. Peptide text beside a SMILES is read from it. * marks the point of attachment. ξ: configuration not given here. X11 = O=C([C@@H](Cc1ccc(-c2ccncc2)cc1)N[*:1])[*:2]; X12 = O=C([C@@H](Cc1ccc(C2CCCCC2)cc1)N[*:1])[*:2]; dBip = N[C@H](Cc1ccc(-c2ccccc2)cc1)C(=O)O; Octanoyl(6-Me) = CCC(C)CCCCC(=O)*; X3 = CCCCCCCCN1CCNC[C@H]1C(=O)*; dCha = N[C@H](CC1CCCCC1)C(=O)O; Thr(3ξ) = CC(O)[C@H](N)C(=O)O; X8 = NCC(C(=O)*)C1CCCCC1; Dab = NCC[C@H](N)C(=O)O; Dap = NC[C@H](N)C(=O)O; X2 = CC(C)CC(CN)C(=O)*

How the values were obtained:
Assay type in all cases: cell-based
HK-2 cells = system: HK-2 cells
Text: Values are reported relative to Polymyxin B.

Klebsiella pneumoniae = system: Klebsiella pneumoniae
Method in brief: (§1)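 Values are minimum inhibitory concentrations, reported in μg/mL. Compounds were tested for susceptibility against up to nine strains per organism, including resistant isolates.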

Pseudomonas aeruginosa = system: Pseudomonas aeruginosa
Method in brief: as §1

Escherichia coli = system: Escherichia coli
Method in brief: as §1

Acinetobacter baumannii = system: Acinetobacter baumannii
Method in brief: as §1

Row | HK-2 IC50 (HK-2 cells) [µg/mL] | MIC K. pneumoniae 062 (Klebsiella pneumoniae) [µg/mL] | MIC K. pneumoniae 063 (Klebsiella pneumoniae) [µg/mL] | MIC K. pneumoniae 064 (Klebsiella pneumoniae) [µg/mL] | MIC K. pneumoniae 066 (Klebsiella pneumoniae) [µg/mL] | MIC K. pneumoniae 067 (Klebsiella pneumoniae) [µg/mL] | MIC K. pneumoniae ATCC 4352 (Klebsiella pneumoniae) [µg/mL] | MIC P. aeruginosa 068 (Pseudomonas aeruginosa) [µg/mL] | MIC P. aeruginosa 070 (Pseudomonas aeruginosa) [µg/mL] | MIC P. aeruginosa ATCC 27853 (Pseudomonas aeruginosa) [µg/mL] | MIC E. coli 060 (Escherichia coli) [µg/mL] | MIC E. coli 061 (Escherichia coli) [µg/mL] | MIC E. coli ATCC 25922 (Escherichia coli) [µg/mL] | MIC A. baumanii 053 (Acinetobacter baumannii) [µg/mL] | MIC A. baumanii 056 (Acinetobacter baumannii) [µg/mL] | MIC A. baumanii ATCC BAA-747 (Acinetobacter baumannii) [µg/mL] | MIC K. pneumoniae 065 (Klebsiella pneumoniae) [µg/mL] | MIC E. coli 058 (Escherichia coli) [µg/mL] | MIC E. coli 059 (Escherichia coli) [µg/mL] | MIC P. aeruginosa CCUG 59347 (Pseudomonas aeruginosa) [µg/mL] | SMILES | also measured
1 | – | – | – | – | – | – | – | – | – | – | – | – | – | – | – | – | – | – | – | – | CC(C)C[C@@H]1NC(=O)[C@@H](CC2CCCCC2)NC(=O)[C@H](CCN)NC(=O)[C@@H](NC(=O)[C@H](CCN)NC(=O)[C@@H](NC(=O)CC(CN)Cc2ccccc2)[C@@H](C)O)CCNC(=O)[C@H]([C@@H](C)O)NC(=O)[C@H](CCN)NC(=O)[C@H](CCN)NC1=O (single isomer, unassigned; isomer 2) [Example 67, 4-amino-3-benzylbutanoyl polymyxin [D-cyclohexylalanine]-6 nonapeptide isomer 2] | HK-2 IC50 (HK-2 cells; HK-2 cells): 60 µg/mL; MIC K. pneumoniae 063 (Klebsiella pneumoniae; strain 063): 32 µg/mL (≈ 28 µM); MIC K. pneumoniae 065 (Klebsiella pneumoniae; strain 065): 1 µg/mL (≈ 0.874 µM); MIC K. pneumoniae ATCC 13882 (Klebsiella pneumoniae; strain ATCC 13882): 0.25 µg/mL (≈ 0.218 µM); MIC P. aeruginosa 068 (Pseudomonas aeruginosa; strain 068): 8 µg/mL (≈ 6.99 µM); MIC P. aeruginosa 070 (Pseudomonas aeruginosa; strain 070): 16 µg/mL (≈ 14 µM); MIC P. aeruginosa ATCC 27853 (Pseudomonas aeruginosa; strain ATCC 27853): 0.25 µg/mL (≈ 0.218 µM); MIC P. aeruginosa CCUG 59347 (Pseudomonas aeruginosa; strain CCUG 59347): 0.25 µg/mL (≈ 0.218 µM); MIC E. coli 058 (Escherichia coli; strain 058): 4 µg/mL (≈ 3.5 µM); MIC E. coli 061 (Escherichia coli; strain 061): 16 µg/mL (≈ 14 µM); MIC E. coli ATCC 25922 (Escherichia coli; strain ATCC 25922): 0.125 µg/mL (≈ 0.109 µM); MIC E. coli NCTC 9001 (Escherichia coli; strain NCTC 9001): 0.06 µg/mL (≈ 0.0524 µM); MIC A. baumanii 053 (Acinetobacter baumannii; strain 053): 64 µg/mL (≈ 55.9 µM); MIC A. baumanii 056 (Acinetobacter baumannii; strain 056): 16 µg/mL (≈ 14 µM); MIC A. baumanii ATCC BAA-747 (Acinetobacter baumannii; strain ATCC BAA-747): 0.25 µg/mL (≈ 0.218 µM); MIC A. baumanii NCTC 13424 (Acinetobacter baumannii; strain NCTC 13424): 0.25 µg/mL (≈ 0.218 µM)
2 | 7 | >64 | >64 | 32 (≈ 25 µM) | 32 (≈ 25 µM) | >32 | 1 (≈ 0.781 µM) | 32 (≈ 25 µM) | >32 | 1 (≈ 0.781 µM) | 8 (≈ 6.25 µM) | 32 (≈ 25 µM) | 1 (≈ 0.781 µM) | >32 | >32 | 1 (≈ 0.781 µM) | – | – | – | – | CCC(C)CCCCC(=O)N[C@@H](CCN)C(=O)N[C@H](C(=O)N[C@@H](CCN)C(=O)N[C@H]1CCNC(=O)[C@H]([C@@H](C)O)NC(=O)[C@H](CCN)NC(=O)[C@H](CCN)NC(=O)[C@H](CC(C)C)NC(=O)[C@@H](Cc2ccc(-c3ccncc3)cc2)NC(=O)[C@H](CCN)NC1=O)C(C)O (stereo partly drawn) [Example 1] ({Octanoyl(6-Me)}-[Dab][Thr(3ξ)][Dab][Dab][Dab][X11]L[Dab][Dab]T; lactam 4-C) | –
3 | 3 | 4 (≈ 3.17 µM) | 4 (≈ 3.17 µM) | 2 (≈ 1.58 µM) | 0.5 (≈ 0.396 µM) | 4 (≈ 3.17 µM) | 1 (≈ 0.791 µM) | 2 (≈ 1.58 µM) | 2 (≈ 1.58 µM) | – | 1 (≈ 0.791 µM) | 2 (≈ 1.58 µM) | 1 (≈ 0.791 µM) | 8 (≈ 6.33 µM) | 4 (≈ 3.17 µM) | 1 (≈ 0.791 µM) | 1 (≈ 0.791 µM) | 1 (≈ 0.791 µM) | 0.5 (≈ 0.396 µM) | – | CCCCCCCCN1CCNC[C@H]1C(=O)N[C@H](C(=O)N[C@@H](CCN)C(=O)N[C@H]1CCNC(=O)[C@H]([C@@H](C)O)NC(=O)[C@H](CCN)NC(=O)[C@H](CCN)NC(=O)[C@H](CC(C)C)NC(=O)[C@@H](Cc2ccc(-c3ccccc3)cc2)NC(=O)[C@H](CCN)NC1=O)C(C)O (stereo partly drawn) [Example 6] (X3-[Thr(3ξ)][Dab][Dab][Dab][dBip]L[Dab][Dab]T; lactam 3-C) | –
4 | 83 | 16 (≈ 14.6 µM) | 64 (≈ 58.4 µM) | 8 (≈ 7.3 µM) | 16 (≈ 14.6 µM) | >64 | 0.25 (≈ 0.228 µM) | 32 (≈ 29.2 µM) | 32 (≈ 29.2 µM) | 0.5 (≈ 0.456 µM) | 8 (≈ 7.3 µM) | 32 (≈ 29.2 µM) | 0.25 (≈ 0.228 µM) | >64 | 64 (≈ 58.4 µM) | 0.5 (≈ 0.456 µM) | – | 8 (≈ 7.3 µM) | 16 (≈ 14.6 µM) | – | CC(C)CC(CN)C(=O)N[C@H](C(=O)N[C@@H](CCN)C(=O)N[C@H]1CCNC(=O)[C@H]([C@@H](C)O)NC(=O)[C@H](CCN)NC(=O)[C@H](CCN)NC(=O)[C@H](CC(C)C)NC(=O)[C@@H](CC2CCCCC2)NC(=O)[C@H](CCN)NC1=O)C(C)O (stereo partly drawn) [Example 21] (X2-[Thr(3ξ)][Dab][Dab][Dab][dCha]L[Dab][Dab]T; lactam 3-C) | –
5 | 17 | 16 (≈ 13.2 µM) | 32 (≈ 26.5 µM) | 4 (≈ 3.31 µM) | 4 (≈ 3.31 µM) | 64 (≈ 52.9 µM) | 0.5 (≈ 0.413 µM) | 4 (≈ 3.31 µM) | 4 (≈ 3.31 µM) | 1 (≈ 0.827 µM) | 4 (≈ 3.31 µM) | 8 (≈ 6.61 µM) | 0.5 (≈ 0.413 µM) | 64 (≈ 52.9 µM) | 32 (≈ 26.5 µM) | 0.5 (≈ 0.413 µM) | 1 (≈ 0.827 µM) | 2 (≈ 1.65 µM) | 2 (≈ 1.65 µM) | – | CCC(C)CCCCC(=O)N[C@@H](CCN)C(=O)N[C@H](C(=O)N[C@@H](CCN)C(=O)N[C@H]1CCNC(=O)[C@H](C(C)O)NC(=O)[C@H](CCN)NC(=O)[C@H](CCN)NC(=O)[C@H](CC(C)C)NC(=O)[C@@H](CC2CCCCC2)NC(=O)[C@H](CCN)NC1=O)C(C)O (stereo partly drawn) [Example 22] ({Octanoyl(6-Me)}-[Dab][Thr(3ξ)][Dab][Dab][Dab][dCha]L[Dab][Dab][Thr(3ξ)]; lactam 4-C) | –
6 | 18 | – | 8 (≈ 6.91 µM) | – | – | – | 0.25 (≈ 0.216 µM) | 4 (≈ 3.45 µM) | 2 (≈ 1.73 µM) | 0.5 (≈ 0.432 µM) | – | 8 (≈ 6.91 µM) | 0.5 (≈ 0.432 µM) | 8 (≈ 6.91 µM) | 4 (≈ 3.45 µM) | 0.5 (≈ 0.432 µM) | 0.5 (≈ 0.432 µM) | 2 (≈ 1.73 µM) | – | 1 (≈ 0.863 µM) | CC(C)CC(CN)C(=O)N[C@H](C(=O)N[C@@H](CN)C(=O)N[C@H]1CCNC(=O)[C@H]([C@@H](C)O)NC(=O)[C@H](CCN)NC(=O)[C@H](CCN)NC(=O)[C@H](CC(C)C)NC(=O)[C@@H](Cc2ccc(C3CCCCC3)cc2)NC(=O)[C@H](CCN)NC1=O)C(C)O (stereo partly drawn) [Example 27, 2-(Aminomethyl)-4-methylpentanoyl L-Thr-L-Dap-polymyxin [D-(4-cyclohexyl Phe)]-6 heptapeptide] (X2-[Thr(3ξ)][Dap][Dab][Dab][X12]L[Dab][Dab]T; lactam 3-C) | MIC E. coli NCTC 9001 (Escherichia coli): 0.5 µg/mL (≈ 0.432 µM); MIC A. baumanii NCTC 13424 (Acinetobacter baumannii): 0.25 µg/mL (≈ 0.216 µM)
7 | 86 | – | 8 (≈ 7.22 µM) | – | – | – | 0.125 (≈ 0.113 µM) | 4 (≈ 3.61 µM) | 4 (≈ 3.61 µM) | 0.25 (≈ 0.226 µM) | – | 8 (≈ 7.22 µM) | 0.25 (≈ 0.226 µM) | 16 (≈ 14.4 µM) | 4 (≈ 3.61 µM) | 0.06 (≈ 0.0541 µM) | 1 (≈ 0.902 µM) | 1 (≈ 0.902 µM) | – | 0.5 (≈ 0.451 µM) | CC(C)C[C@@H]1NC(=O)[C@@H](CC2CCCCC2)NC(=O)[C@H](CCN)NC(=O)[C@@H](NC(=O)[C@H](CN)NC(=O)[C@@H](NC(=O)C(CN)C2CCCCC2)C(C)O)CCNC(=O)[C@H]([C@@H](C)O)NC(=O)[C@H](CCN)NC(=O)[C@H](CCN)NC1=O (stereo partly drawn) [Example 28, 3-Amino-2-cyclohexylpropanoyl L-Thr-L-Dap-polymyxin [D-cyclohexylalanine]-6 heptapeptide] (X8-[Thr(3ξ)][Dap][Dab][Dab][dCha]L[Dab][Dab]T; lactam 3-C) | MIC E. coli NCTC 9001 (Escherichia coli): 0.125 µg/mL (≈ 0.113 µM); MIC A. baumanii NCTC 13424 (Acinetobacter baumannii): 0.125 µg/mL (≈ 0.113 µM)
8 | 4 | – | 4 (≈ 3.2 µM) | – | – | – | 1 (≈ 0.8 µM) | 2 (≈ 1.6 µM) | 2 (≈ 1.6 µM) | 1 (≈ 0.8 µM) | – | 2 (≈ 1.6 µM) | 1 (≈ 0.8 µM) | 4 (≈ 3.2 µM) | 2 (≈ 1.6 µM) | 1 (≈ 0.8 µM) | 1 (≈ 0.8 µM) | 1 (≈ 0.8 µM) | – | 2 (≈ 1.6 µM) | CCCCCCCCN1CCNC[C@H]1C(=O)N[C@H](C(=O)N[C@@H](CN)C(=O)N[C@H]1CCNC(=O)[C@H]([C@@H](C)O)NC(=O)[C@H](CCN)NC(=O)[C@H](CCN)NC(=O)[C@H](CC(C)C)NC(=O)[C@@H](Cc2ccc(-c3ccccc3)cc2)NC(=O)[C@H](CCN)NC1=O)C(C)O (stereo partly drawn) [Example 30, (S)-1-Octylpiperazine-2-carbonyl L-Thr-L-Dap-polymyxin [D-(4-phenyl Phe)]-6 heptapeptide.] (X3-[Thr(3ξ)][Dap][Dab][Dab][dBip]L[Dab][Dab]T; lactam 3-C) | MIC K. pneumoniae ATCC 13882 (Klebsiella pneumoniae): 1 µg/mL (≈ 0.8 µM); MIC A. baumanii NCTC 13424 (Acinetobacter baumannii): 2 µg/mL (≈ 1.6 µM)
